This passage reports Kd results from PubChem BioAssay AID1033 (Sanford-Burnham Center for Chemical Genomics, 2008).

Structures are written as SMILES. Activity calls are given as the source filed them. The rule behind the calls is not given here.

In general, Kd refers to the constant that tells how readily two partners part at equilibrium.

Chaperone protein DnaK (Escherichia coli (strain K12)), sequence (P0A6Y8 whole entry, looked up): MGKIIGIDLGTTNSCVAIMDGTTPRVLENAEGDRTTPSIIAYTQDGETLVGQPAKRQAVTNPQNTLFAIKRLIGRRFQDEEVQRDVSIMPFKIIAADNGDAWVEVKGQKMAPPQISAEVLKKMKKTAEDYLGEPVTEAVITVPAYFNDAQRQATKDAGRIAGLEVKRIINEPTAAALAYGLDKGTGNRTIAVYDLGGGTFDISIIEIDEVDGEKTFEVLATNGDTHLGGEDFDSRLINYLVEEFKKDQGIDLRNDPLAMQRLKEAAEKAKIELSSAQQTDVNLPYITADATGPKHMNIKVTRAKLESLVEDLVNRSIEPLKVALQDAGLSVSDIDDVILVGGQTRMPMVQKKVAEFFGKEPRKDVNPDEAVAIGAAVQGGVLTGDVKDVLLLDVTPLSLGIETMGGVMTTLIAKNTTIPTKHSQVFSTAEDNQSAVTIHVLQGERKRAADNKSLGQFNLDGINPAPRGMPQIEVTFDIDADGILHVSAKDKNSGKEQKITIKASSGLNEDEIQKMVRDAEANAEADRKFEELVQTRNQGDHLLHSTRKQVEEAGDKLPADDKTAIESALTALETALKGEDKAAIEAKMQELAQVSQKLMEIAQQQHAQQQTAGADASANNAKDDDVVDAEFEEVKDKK

The assay has as its target Chaperone protein DnaK (Escherichia coli (strain K12)) (UniProt P0A6Y8). In words: E. coli DnaK SBD ligand binding – biophysical, NMR, chaperone (AID 1033). Conditions: Purified DnaK SBD.
Consider `CC(C)CCCC1(C)C=Cc2c(O)c3c(c(CCC(C)C)c2O1)OC12C(CC4CC1C(C)(C)OC2(CCC(C)C(=O)O)C4O)C3=O` (configuration not stated), for which the Kd was > 4 mM (inactive).

Regarding `CC(=O)Nc1ccc(NC2SC(=O)NC2=O)cc1` (configuration not stated), the Kd is > 4 mM (inactive).

For the molecule `Nc1nc(SCC(=O)c2ccc([N+](=O)[O-])cc2)n[nH]1`, the Kd was > 4 mM (inactive).

With `Cc1nn(C)c(Cl)c1S(=O)(=O)N1CCOCC1`, the Kd is > 4 mM (inactive).

As to `Cc1cc(C(=O)NC(C)c2ccncc2)cs1` (configuration not stated), the Kd is > 4 mM (inactive).

For `Cc1c(C(=O)OC(C)C)[nH]c2c1C(=O)CCC2`, the Kd was > 4 mM (inactive).

`COC1=CC23CCCN2CCc2cc4c(cc2C3C1O)OCO4` (configuration not stated): the Kd is > 4 mM (inactive).

With `CN1CCC(NC(=O)c2c(F)cccc2Cl)CC1`, the Kd was > 4 mM (inactive).

With `CCOc1ccc(-c2n[nH]c(=S)n2C)cc1`, the Kd is > 4 mM (inactive).

In the case of `CC(=O)c1sc2nc(N)nn2c1C`, the Kd is > 4 mM (inactive).

For the molecule `O=C1NC(=Nc2ccccc2Cl)SC1(CO)CO`, the Kd was > 4 mM (inactive).

`O=C(Nn1cnnc1)c1csc2ccccc12`: the Kd was > 4 mM (inactive).

With `NC1CCN(Cc2ccccc2)CC1`, the Kd is > 4 mM (inactive).

With `Cc1cc(C)nc(/N=C(/N)N2CCN(C)CC2)n1`, the Kd was > 4 mM (inactive).

Consider `COC(=O)Cc1cccc(OC)c1`, for which the Kd is > 4 mM (inactive).

Take `CS(=O)(=O)c1ccc(N)cc1`: the Kd was > 4 mM (inactive).

Regarding `O=C(O)/C=C1\NC(=O)c2ccccc21`, the Kd was > 4 mM (inactive).

For the molecule `COC(=O)C1Cc2ccccc2N1` (configuration not stated), the Kd was > 4 mM (inactive).

On to `C=CCCCCCCCCCCCc1ccco1`, for which the Kd was > 4 mM (inactive).

As for `CCCNC(=O)c1cnc2n(c1=O)CCS2`, the Kd is > 4 mM (inactive).

Take `O=C1NC(=O)C(C2SC(=O)NC2=O)S1` (configuration not stated): the Kd is > 4 mM (inactive).

In the case of `CC(=O)c1c(C)nc(C)nc1NC(=O)C(C)C`, the Kd was > 4 mM (inactive).

As to `O=C1C(=O)N(CN2CCN(CCO)CC2)c2ccccc21`, the Kd is > 4 mM (inactive).

As to `CC(=O)Nc1cnn(-c2ccccc2)c(=O)c1Cl`, the Kd is > 4 mM (inactive).

As for `O=C1NNC(=O)C2C3c4ccccc4C(c4ccccc43)C12` (configuration not stated), the Kd was > 4 mM (inactive).

For `COc1ccc2nc(N)sc2n1`, the Kd was > 4 mM (inactive).

As to `Cn1c(=O)n(CC(=O)N2CCOCC2)c2ccccc21`, the Kd is > 4 mM (inactive).

Consider `O=C(O)C12CC3CC(CC(O)(C3)C1)C2`, for which the Kd was > 4 mM (inactive).

In the case of `OCC(O)C(O)C(O)CO` (configuration not stated), the Kd is > 4 mM (inactive).

As to `OCc1c[nH]c2ccccc12`, the Kd was > 4 mM (inactive).

In the case of `CC(C)c1c(O)ccc2c1CCC1[C@@](C)(CO)CCC[C@]21C` (some centres not stated), the Kd is > 4 mM (inactive).

With `Nc1nc(SCc2ccccc2)ns1`, the Kd is > 4 mM (inactive).

With `Cc1cc(C)nc(/N=C(/N)N2CCOCC2)n1`, the Kd is > 4 mM (inactive).

As for `O=c1[nH]cc(S(=O)(=O)Nc2ccccc2)c(=O)[nH]1`, the Kd was > 4 mM (inactive).

With `OCc1snnc1-c1ccccc1`, the Kd is > 4 mM (inactive).

With `CNC(=O)C(=O)Nc1ccc(F)cc1`, the Kd was > 4 mM (inactive).

Consider `COc1cc(CNC(=O)CCCC/C=C/C(C)C)ccc1O`, for which the Kd is > 4 mM (inactive).

For `Cc1nnc(Nc2ccc(S(N)(=O)=O)cc2)[nH]c1=O`, the Kd is > 4 mM (inactive).

As for `CC(=O)Nc1ccc(S(N)(=O)=O)cc1`, the Kd is > 4 mM (inactive).

Consider `c1ccc(-n2ncc3c(NCc4ccco4)ncnc32)cc1`, for which the Kd is > 4 mM (inactive).

In the case of `Cn1c(C(=O)O)ccc1S(N)(=O)=O`, the Kd was > 4 mM (inactive).

As for `CC(=O)O[C@@H]1CC2C(C)(C)C(=O)C3OC3[C@]2(C)C2CC[C@@]3(C)[C@H](c4ccoc4)OC(=O)C4OC43[C@@]21C` (some centres not stated), the Kd was > 4 mM (inactive).

As for `CC(=O)c1sc(NC(=O)C=C(C)C)nc1C`, the Kd was > 4 mM (inactive).

As to `CC(=O)c1c(C)n(O)c2ccc3nonc3c12`, the Kd is > 4 mM (inactive).

On to `CCC(CO)NC(=O)c1snnc1C` (configuration not stated), for which the Kd is > 4 mM (inactive).

For the molecule `COc1c(O)cc2oc3cc(O)c(CC=C(C)C)c(O)c3c(=O)c2c1CC=C(C)C`, the Kd is > 4 mM (inactive).

On to `Cc1ccc2cccc(OC(=O)N3CCCC3)c2n1`, for which the Kd is > 4 mM (inactive).

Turning to `CC(=O)Nc1cccs1`, the Kd is > 4 mM (inactive).

`O=C(O)c1cc2ccccc2o1`: the Kd was > 4 mM (inactive).

With `Cc1cc(=O)n(CCc2ccccc2)c(O)c1C#N`, the Kd is > 4 mM (inactive).

As for `Oc1cc(O)cc(/C=C/c2ccccc2)c1`, the Kd is > 4 mM (inactive).

Turning to `O=C1CSC(=Nc2ccccc2)N1`, the Kd is > 4 mM (inactive).

As for `Cc1ccc(CO)o1`, the Kd was > 4 mM (inactive).

Turning to `Oc1ccc(-n2ccnc2)cc1`, the Kd was > 4 mM (inactive).

Take `O=C(/C=C/c1ccccc1)NC1CCS(=O)(=O)C1` (configuration not stated): the Kd was > 4 mM (inactive).

On to `Cc1ccc(C)c(C(=O)n2cnnc2N)c1`, for which the Kd is > 4 mM (inactive).

As for `COc1ccccc1CNc1nc2nc(C)cc(=O)n2[nH]1`, the Kd was > 4 mM (inactive).

Consider `CN(C)c1nc(N2CCOCC2)c2cnn(C)c2n1`, for which the Kd was > 4 mM (inactive).

Turning to `Cc1cc(NC(=O)Cc2c(F)cccc2Cl)no1`, the Kd was > 4 mM (inactive).

Regarding `S=C(NCc1ccco1)NN1CCOCC1`, the Kd is > 4 mM (inactive).

`CC1=CCc2c(cc3oc(C)cc(=O)c3c2O)OC1`: the Kd is > 4 mM (inactive).

Turning to `O=C(O)CCC(=O)Nc1nnc(C(F)(F)F)s1`, the Kd is > 4 mM (inactive).

As for `Cc1ccc(C)c(C(=O)NCc2ccncc2)c1`, the Kd is > 4 mM (inactive).

As for `CC(N)C(=O)c1ccco1` (configuration not stated), the Kd is > 4 mM (inactive).

Regarding `NC(=O)CN=Cc1c(O)[nH]c2ccccc12`, the Kd is > 4 mM (inactive).

With `O=C(NCc1cccs1)c1nc2ncccn2n1`, the Kd entry is “inactive”.

`OCc1ccc2c(c1)OCCCO2`: the Kd was > 4 mM (inactive).

Take `Cc1ccc(NC(=O)c2ccccc2)s1`: the Kd is > 4 mM (inactive).

Regarding `Nc1ccc2c(c1)COc1ccccc1O2`, the Kd is > 4 mM (inactive).

For the molecule `Cc1nc2ccccc2c(=O)n1/N=C/c1ccco1`, the Kd was > 4 mM (inactive).

As for `NC(=O)c1ccc(NC(=O)c2cccnc2)cc1`, the Kd was > 4 mM (inactive).

In the case of `Cc1n[nH]c(=S)n(/N=C/c2cccs2)c1=O`, the Kd is > 4 mM (inactive).

As for `CC1(O)CC2C(CC1O)C2(C)C` (configuration not stated), the Kd was > 4 mM (inactive).

As to `Oc1ccc(C(=S)N2CCOCC2)cc1`, the Kd is > 4 mM (inactive).

Turning to `Cc1c(C)[n+]([O-])c(-c2ccc([N+](=O)[O-])cc2)n1O`, the Kd is > 4 mM (inactive).

Turning to `O=C1NC(=O)C(c2ccccc2)C(=O)N1`, the Kd was > 4 mM (inactive).

`CN(C)c1ccc(C2CC(=O)CC(=O)C2)cc1`: the Kd is > 4 mM (inactive).

In the case of `NC(=O)c1cc(N)ccc1N1CCCCC1`, the Kd was > 4 mM (inactive).

With `C[C@@H]1CCC2[C@](C)(CO)[C@@H](O)CC[C@]2(C)[C@@]12CC[C@@](CO)(CCO)O2` (some centres not stated), the Kd is > 4 mM (inactive).

Turning to `O=C(NC12CC3CC(CC(C3)C1)C2)c1cnccn1`, the Kd was > 4 mM (inactive).

As to `NCCCCN`, the Kd was > 4 mM (inactive).

As for `CC(=O)N1CCN(c2ccc(O)cc2)CC1`, the Kd is > 4 mM (inactive).

Take `C[C@@H]1O[C@@H](O[C@H]2C[C@@H](O)[C@]3(CO)C4C(CC[C@]3(O)C2)[C@@]2(O)CC[C@H](C3=CC(=O)OC3)[C@@]2(C)C[C@H]4O)[C@H](O)[C@H](O)[C@H]1O` (some centres not stated): the Kd was > 4 mM (inactive).

Take `O=C1NC(=O)/C(=C\c2ccncc2)S1`: the Kd was > 4 mM (inactive).

As for `C[n+]1cccc(C(=O)[O-])c1`, the Kd is > 4 mM (inactive).

For the molecule `Cc1[nH]n(-c2ccccc2)c(=O)c1[N+](=O)[O-]`, the Kd is > 4 mM (inactive).

Turning to `CCOC(=O)Nc1ccc2c(C)cc(=O)oc2c1`, the Kd is > 4 mM (inactive).

On to `Nc1ccccc1C(=O)CC(N)C(=O)O` (configuration not stated), for which the Kd is > 4 mM (inactive).

With `COc1ccc(-c2coc3cc(O)ccc3c2=O)c(OC)c1`, the Kd was > 4 mM (inactive).

Take `CCNC(=O)CC1Nc2ccccc2NC1=O` (configuration not stated): the Kd was > 4 mM (inactive).

On to `COc1c2ccoc2cc2oc(=O)ccc12`, for which the Kd is > 4 mM (inactive).

As for `CC(=O)O[C@@H]1CC2C(C)(C)CCC(=O)[C@]2(C)C2CC[C@@]3(C)[C@H](c4ccoc4)OC(=O)C4OC43[C@@]21C` (some centres not stated), the Kd was > 4 mM (inactive).

As for `Cc1cc(=O)[nH]c(N2CCCCC2)n1`, the Kd was > 4 mM (inactive).

`Cc1noc(-c2ccccc2)c1C(=O)O`: the Kd is > 4 mM (inactive).

`NC(=O)c1ccsc1NC(=O)C1=COCCO1`: the Kd is > 4 mM (inactive).

For `CC(=O)O[C@H]1C[C@@H](OC(C)=O)C(C)(C)C2C[C@@H](OC(C)=O)[C@]3(C)C(CC[C@@]4(C)[C@H](c5ccoc5)C(=O)[C@H]5O[C@]543)[C@]21C` (some centres not stated), the Kd was > 4 mM (inactive).

Consider `NS(=O)(=O)c1ccc(NC(=O)C2CC2)cc1`, for which the Kd is > 4 mM (inactive).

As to `C[C@@H]1CC[C@@]23CCC4(C)[C@@](C=CC5[C@@]6(C)CCC(=O)C(C)(C)C6CC[C@]54C)(OC2=O)C3[C@H]1C` (some centres not stated), the Kd was > 4 mM (inactive).

Take `CC(=O)c1cc(C)ccc1O`: the Kd is > 4 mM (inactive).

Consider `O=C(Nc1ccccc1)Nc1ccccn1`, for which the Kd was > 4 mM (inactive).

Consider `O=C(O)CS(=O)(=O)c1ccccc1[N+](=O)[O-]`, for which the Kd is > 4 mM (inactive).

For `O=C(O[C@@H]1Cc2c(O)cc(O)cc2O[C@@H]1c1cc(O)c(O)c(O)c1-c1c([C@H]2Oc3cc(O)cc(O)c3C[C@H]2O)cc(O)c(O)c1O)c1cc(O)c(O)c(O)c1`, the Kd was > 4 mM (inactive).
